This note sets out measurements from publication PMC10644352, “Bromodomain Factor 5 as a Target for Antileishmanial Drug Discovery” (ACS Infectious Diseases, 2023).

Experiment [1] deals with T1, bromodomain factor 5 (LdBDF5), first bromodomain BD5.1 (Leishmania donovani, UniProt A0ACM8QMJ0).
T1 construct: gene CGC21_36735; BD5.1 (first bromodomain of the N-terminal tandem repeat)
As to the kind of experiment: ITC (also MST Kd […], FP competition IC50 […], TSA, waterLOGSY/STD/CPMG NMR). It is filed as binding.

Experiment [2] has as its target T2, bromodomain factor 5 (LdBDF5), second bromodomain BD5.2 (Leishmania donovani, UniProt A0ACM8QMJ0).
T2 construct: gene CGC21_36735; BD5.2 (second bromodomain of the N-terminal tandem repeat)
T2 sequence (A0ACM8QMJ0 161-300): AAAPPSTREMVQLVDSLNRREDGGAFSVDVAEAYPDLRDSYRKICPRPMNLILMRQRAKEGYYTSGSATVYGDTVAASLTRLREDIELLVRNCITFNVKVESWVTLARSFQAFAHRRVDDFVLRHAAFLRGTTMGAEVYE
The experiment can be described thus: FP competition (also TSA shift; waterLOGSY and CPMG NMR positive, STD inconclusive). It is filed as binding.

`COc1ccc(CCc2nc3cc(-c4c(C)noc4C)ccc3n2C[C@H](C)N2CCOCC2)cc1Cl` [SGC–CBP30]: in experiment [1], the Kd (in general, a measure of binding affinity in units of concentration) is 0.281 ± 0.0123 µM. In the case of `CCn1cc(-c2cccc(C(F)(F)F)c2)c2sc(C(=N)NC3CCS(=O)(=O)CC3)cc2c1=O` [I-BRD9], in experiment [2], the IC50 (as a rule, the concentration that inhibits the measured activity by half) came out at 24.7 ± 6.2 µM.
